Reference: US5120735A, “Antifungal composition” (Kaken Pharmaceutical Co., Ltd., priority 1987, dated 1992)
Read-outs that look alike come from different tables or passages of the source. One block for each compound: values may come before it.

Assays:
[1] = test system: Candida albicans MTU 12021; experiment: Agar dilution MIC, single and combined use; format: cell-based; details: for MIC: Candida albicans, read-out: Minimum Inhibitory Concentration (MIC); for Minimum Inhibitory Concentration (MIC) of the agent combined with Compound 1: combined with Compound 1 at 100 μg/ml; for Minimum Inhibitory Concentration (MIC) of miconazole in combination with the arylmethylamine compound: MIC is that of miconazole, compound at a concentration of 100 mg/ml (so in the source); for synergistic effects of combined use with Compound 1: agent combined with Compound 1, Table 1
Description: (1) The effects of the combined use of Compound 1 with various imidazole antifungal agents against Candida albicans MTU 12021 strain were examined as follows. […] Then, distilled water containing 0.1% by weight of Tween 80 was added thereto to obtain drug solutions having a concentration of from 1 to 1,000 μg/ml.
(§1) 1 ml of each drug solution diluted twice was introduced into a sterilized Petri dish, and 8 ml of Sabouraud agar medium was added to prepare a agar plate. Thus, a series of agar plates for the combinations having various concentrations were prepared.
(§2) Candida albicans MTU 12021 strain cultured on a Sabouraud agar medium for 24 hours, was suspended in a saline, and a cells suspension having a concentration of 2×10^6 spores/ml was prepared by counting the number of spores by a hemacytometer. Then, 50 μl of the cells suspension was inoculated to the above agar plates by means of a microplanter (manufactured by Sakuma Seisakusho). The inoculated agar plates were cultured at 37° C. for 48 hours, whereupon the presence or absence of the growth of the strain was examined.
(§3) Culture medium: Sabouraud agar medium
(§4) Culturing condition: 37° C. for 48 hours
(§5) Strain used: Candida albicans MTU 12021

[2] = test system: Candida albicans MTU 12021; experiment: Checker board method, combined use of Compound 1 with miconazole or ketoconazole; format: cell-based; details: for synergistic effects of combined use with Compound 1 (checker board): agent combined with Compound 1, Tables 2 and 3; for Growth: Compound 1 0; for Growth: key: +: Growth observed; -: No growth observed
Description: as §1, §2, §3, §4, §5

[3] = test system: Candida albicans MTU 12021; experiment: Disk method (growth inhibition ring); format: cell-based; details: for effects of combined use with miconazole or ketoconazole: same disk method as Example 1(3)
Description: (3) The effects of the combined use of Compound 1 with miconazole or ketoconazole were examined by a disk method.
Candida albicans MTU 12021 stain was mixed with a Sabouraud agar medium to have a concentration of 5×10^4 spores/ml, and 10 ml thereof was poured into a sterilized Petri dish to obtain an inoculated agar plate.
50 mg of each of Compound 1, miconazole and ketoconazole was impregnated to a disk (Toyo Filter paper of 8 mm in diameter), and the disk was placed on the inoculated agar plate, followed by culturing at 37° C. for 96 hours, whereupon the synergistic effects were evaluated based on the growth inhibition ring thereby appeared.

ICR male mice = experiment: Acute toxicity, oral, mice; format: in vivo; details: up to 5,000 mg/kg, ICR male mice of 5 weeks old
Description: To examine the acute toxicity of the arylmethylamine antifungal agents used in the composition of the present invention, Compounds 1 and 2 were selected, and they were, respectively, suspended in 0.5% methyl cellulose and orally administered to ICR male mice of 5 weeks old (body weight: 26-28 g) at a dose corresponding to the body weight.

[4] = MTU12021, single use, Sabouraud agar, 37° C., 48 hours
[5] = Sabouraud agar, 37° C., 48 hours

MIC [1, 4]: > 100 µg/mL | Minimum Inhibitory Concentration (MIC) of the agent combined with Compound 1 [1, 5]: > 100 µg/mL
SMILES: Clc1cc(Cl)c(OCC#CI)cc1Cl [Haloprozin]

MIC [1, 4]: 50 µg/mL | Minimum Inhibitory Concentration (MIC) of the agent combined with Compound 1 [1, 5]: 50 µg/mL
SMILES: O=[N+]([O-])c1c(Cl)cccc1-c1c[nH]cc1Cl [Pyrrolnitrin]

MIC [1, 4]: 25 µg/mL | Minimum Inhibitory Concentration (MIC) of the agent combined with Compound 1 [1, 5]: 1.56 µg/mL
SMILES: Clc1ccc(COC(Cn2ccnc2)c2ccc(Cl)cc2Cl)cc1 (centres unmarked) [econazole]
synergistic effects of combined use with Compound 1 [1]: remarkable synergistic effects

MIC [1, 4]: 25 µg/mL | Minimum Inhibitory Concentration (MIC) of the agent combined with Compound 1 [1, 5]: 25 µg/mL
SMILES: Cc1cc(O)c2c(c1)O[C@@]1(C)CC[C@H]3C(C)(C)CCC[C@]34CO[C@@H]2[C@H]41 [Siccanine]

MIC [1, 4]: > 100 µg/mL | Minimum Inhibitory Concentration (MIC) of miconazole in combination with the arylmethylamine compound [1]: 1.56 µg/mL
SMILES: CN(C/C=C/c1ccccc1)Cc1cccc2ccccc12 [Compound 6, (E)-N-cinnamyl-N-methyl-1-naphthalenemethylamine]
effects of combined use with miconazole or ketoconazole [3]: remarkable synergistic effects

MIC [1, 4]: 100 µg/mL | Minimum Inhibitory Concentration (MIC) of the agent combined with Compound 1 [1, 5]: 100 µg/mL
SMILES: O=C(CCCCCCCCC#CI)Oc1ccccc1 [KP-4249]

MIC [1, 4]: 25 µg/mL | Minimum Inhibitory Concentration (MIC) of the agent combined with Compound 1 [1, 5]: 1.56 µg/mL
SMILES: Clc1ccc(C(Cn2ccnc2)OCc2c(Cl)cccc2Cl)c(Cl)c1 (centres unmarked) [isoconazole]
synergistic effects of combined use with Compound 1 [1]: remarkable synergistic effects

Continued, compound first:

SMILES: CN(Cc1ccc(C(C)(C)C)s1)Cc1cccc2ccccc12 [Compound 5, N-methyl-N-(1-naphthalenemethyl)-5-tert-butyl-2-thiophenemethylamine]
MIC [1, 4]: > 100 µg/mL | Minimum Inhibitory Concentration (MIC) of miconazole in combination with the arylmethylamine compound [1]: 3.13 µg/mL

SMILES: CC(=O)N1CCN(c2ccc(OCC3COC(Cn4ccnc4)(c4ccc(Cl)cc4Cl)O3)cc2)CC1 (centres unmarked) [ketoconazole, reference compound]
synergistic effects of combined use with Compound 1 (checker board) [2]: Remarkable syntergistic effects | Growth ([2]; ketoconazole 0.1 μg/ml): + | Growth ([2]; ketoconazole 0.2 μg/ml): + | Growth ([2]; ketoconazole 0.39 μg/ml): + | Growth ([2]; ketoconazole 0.78 μg/ml): + | Growth ([2]; ketoconazole 1.56 μg/ml): + | Growth ([2]; ketoconazole 3.13 μg/ml): + | Growth ([2]; ketoconazole 12.5 μg/ml): + | Growth ([2]; ketoconazole 25 μg/ml): - | Growth ([2]; ketoconazole 50 μg/ml): - | Growth ([2]; ketoconazole 100 μg/ml): -

SMILES: Clc1ccccc1C(c1ccccc1)(c1ccccc1)n1ccnc1 [clotrimazole]
MIC ([1]; MTU12021, 48 h): 12.5 µg/mL | synergistic effects of combined use with Compound 1 [1]: remarkable synergistic effects | Minimum Inhibitory Concentration (MIC) of the agent combined with Compound 1 [1, 5]: 3.13 µg/mL

SMILES: CN(Cc1ccc(C(C)(C)C)cc1)Cc1csc2ccccc12 [Compound 4, N-4-tert-butylbenzyl-N-methyl-3-benzo[b]thiophenemethylamine]
MIC [1, 4]: > 100 µg/mL | Minimum Inhibitory Concentration (MIC) of miconazole in combination with the arylmethylamine compound [1]: 1.56 µg/mL

SMILES: CN(Cc1ccc(C(C)(C)C)cc1)Cc1ccc(F)c2ccccc12 [Compound 3, N-4-tert-butylbenzyl-N-methyl-4-fluoro-1-naphthalenemethylamine]
MIC [1, 4]: > 100 µg/mL | Minimum Inhibitory Concentration (MIC) of miconazole in combination with the arylmethylamine compound [1]: 6.25 µg/mL

SMILES: Clc1ccc(CO/N=C(\Cn2ccnc2)c2ccc(Cl)cc2Cl)c(Cl)c1 [oxiconazole]
synergistic effects of combined use with Compound 1 [1]: remarkable synergistic effects

SMILES: CCC(C)(C)c1ccc(CN(C)Cc2cccc3ccccc23)cc1 [Compound 2, N-methyl-N-4-tert-pentylbenzyl-1-naphthalenemethylamine]
MIC [1, 4]: > 100 µg/mL | Minimum Inhibitory Concentration (MIC) of miconazole in combination with the arylmethylamine compound [1]: 3.13 µg/mL | death (ICR male mice): no instance of death

SMILES: CN(C/C=C/C#CC(C)(C)C)Cc1cccc2ccccc12 [Compound 7, (E)-N-[6,6-dimethyl-2-hepten-4-ynyl)-N-methyl-1-naphthalenemethylamine]
MIC [1, 4]: > 100 µg/mL | Minimum Inhibitory Concentration (MIC) of miconazole in combination with the arylmethylamine compound [1]: 0.78 µg/mL | effects of combined use with miconazole or ketoconazole [3]: remarkable synergistic effects

SMILES: Clc1ccc(COC(Cn2ccnc2)c2ccc(Cl)cc2Cl)c(Cl)c1 (centres unmarked) [miconazole, reference compound]
MIC ([1]; MTU12021, 48 h): 25 µg/mL | synergistic effects of combined use with Compound 1 [1]: remarkable synergistic effects | Minimum Inhibitory Concentration (MIC) of the agent combined with Compound 1 [1, 5]: 1.56 µg/mL | synergistic effects of combined use with Compound 1 (checker board) [2]: Remarkable syntergistic effects | Growth ([2]; miconazole 0.39 μg/ml): + | Growth ([2]; miconazole 0.78 μg/ml): + | Growth ([2]; miconazole 1.56 μg/ml): + | Growth ([2]; miconazole 3.13 μg/ml): + | Growth ([2]; miconazole 12.5 μg/ml): + | Growth ([2]; miconazole 25 μg/ml): + | Growth ([2]; miconazole 50 μg/ml): - | Growth ([2]; miconazole 100 μg/ml): - | growth inhibition ring, disk alone ([3]; 50 mg per disk (so in the source), 37° C., 96 hours, FIG. 2): a complete inhibitory ring with a small diameter and an incomplete inhibitory ring with a large diameter

SMILES: C[C@@H]1[C@H](O)[C@@H](C)/C=C/C=C/C=C/C=C/C=C/C=C/C=C/[C@H](O[C@@H]2O[C@H](C)[C@@H](O)[C@H](N)[C@@H]2O)C[C@@H]2O[C@](O)(C[C@@H](O)C[C@@H](O)[C@H](O)CC[C@@H](O)C[C@@H](O)CC(=O)O[C@H]1C)C[C@H](O)[C@H]2C(=O)O [Amphotericin B]
MIC [1, 4]: 3.13 µg/mL | Minimum Inhibitory Concentration (MIC) of the agent combined with Compound 1 [1, 5]: 3.13 µg/mL
